Source: paper PMC1779548, “Antihuman Immunodeficiency Virus Type 1 (HIV-1) Activity of Rare Earth Metal Complexes of 4-Hydroxycoumarins in Cell Culture” (Bioinorganic Chemistry and Applications, 2006)

Experiments:
in vitro = format: cell-based; details: MT-2 cells, neutral red uptake, 72 h
Description: (§1) The following cell lines were used: H9/HTLV III B—chronically infected with HIV-1LAI cells, kindly provided by Professor R. Gallo, and MT-2 uninfected human lymphoblastoid cells, HTLV-I transformed. The cells were maintained in RPMI 1640 plus 10% FCS.
(§2) The following parameters were studied: cytotoxic concentration 50—CC50 (concentration […] death of 50% of MT-2 cells), maximal nontoxic concentration—MNC (the highest concentration causing no cytotoxicity), and inhibitory concentration 50–IC50 (concentration inhibiting by 50% the viral replication). CC50 and MNC were detected by neutral red uptake assay. IC50 was studied on MT-2 cells by microtiter infection assay using neutral red uptake. Briefly, the experimental procedure under conditions of acute infection was performed in 96-well microplates in the following sequence:
(§3) • 100 μL MT-2 cells (4–5 × 10 ^4 cells); • 50 μL HIV-1 (undiluted or in the appropriate dilution to obtain multiplicity of infection ≥ 1); contact (2 hours at 37°C/5% CO2); when CC50 and MNC were detected, growth medium instead of virus has been added; • 50 μL sample of substance tested starting from 4× MNC (because this volume is 1/4 of the whole volume in the well) and 2- or 10-fold dilutions in growth medium.
(§4) The cells were incubated for 72 hours and then 100 μL of them were removed to another 96-well plate previously treated for an hour with 50 μg/mL poly-L-lysine (PLL) in volume 100 μL. A solution of 100 μL per well of neutral red in growth medium (0.016%) was added and the cells were incubated for 2 hours at 37°C/5% CO2. Neutral red dye was extracted by acidified alcohol (50% ethanol in 1% acetic acid) and measured colorimetrically at 540 nm. Each plate contained 8 cell control wells (no virus, no substance) for all kinds of experiments. When IC50 was detected, a row of 8 viral controls (plus virus, no substance) and rows of 8 experimental wells (plus virus, different dilutions of the substance) were performed. The values of optical density at 540 nm (OD540) were averaged for each row and the mean values of experimental and control rows were compared. As far as the ligands and their complexes were DMSO soluble, the appropriate controls of DMSO and DMSO + HIV-1 in growth medium were always considered.

MT-2 cells = test: in vitro; format: cell-based; details: for MNC (maximal nontoxic concentration) / CC50 / MNC higher compared to La(1) and the ligand (1): MT-2 cells; for MNC (maximal nontoxic concentration) / CC50: neutral red uptake, 72 h; for MNC higher compared to La(1) and the ligand (1): ratio of MNC
Description: as §1, §2, §3, §4

HIV-1LAI = test: Microtiter infection assay (neutral red uptake), acute infection of MT-2 cells; format: cell-based; details: for Inhibition (%): 2.5 μM, HIV-1LAI infected MT-2 cells; for anti-HIV potency (in words): MT-2/HIV-1, at or under MNC
Experimental: As a source of HIV-1, the supernatant of H9/HTLV III B cell line was used. The supernatants were collected and centrifuged to remove the cells, and virus stocks were prepared with known p24 antigen content, RT activity and infectivity. MT-2 cells were infected with HIV-1 (multiplicity of infection ≥ 1) in suspension (37°C/5% CO2) and then grown parallely with uninfected ones for 72 hours.
CC50 and MNC were detected by neutral red uptake assay. IC50 was studied on MT-2 cells by microtiter infection assay using neutral red uptake. Briefly, the experimental procedure under conditions of acute infection was performed in 96-well microplates in the following sequence:
as §3, §4

HIV-1 = details: at MNC, 72 h incubation, supernatants of HIV-1 infected MT-2 cells, averaged after at least 3 experiments
Experimental: Endogenous RT activity of supernatants of HIV-1 infected MT-2 cells treated/untreated with complexes and ligands was tested by HS-Lenti Kit-RT assay (Cavidi, Sweden). The kit contained recombinant RT (rRT) as a standard which made possible quantitation of the RT in the sample. The method is nonradioactive and colorimetrically detects RT activity product (DNA) at 405 nm (OD405) [3].

[1] = tested on: H9/HTLV III B cells chronically producing HIV-1LAI; test: Chronic infection: RT activity in supernatants of treated H9/HTLV III B cells; format: cell-based
Experimental: (§5) The effect of the compounds was also studied under conditions of chronic infection using productively HIV-infected cells (H9/HTLV III B). The production of infectious virions was measured again using the cytopathic effect of supernatants on MT-2 cells as described above.
(§6) To address further the target of HIV inhibition especially by La(W), a study of this complex for effect on late stages of HIV-1 life cycle (protease, budding, assembly) was carried out. To do this, we treated H9/HTLV III B cells—chronically producing HIV-1—with La(W) at 3 concentrations, starting from MNC. Also, 10× dilution of Indinavir was used as a reference for antiprotease effect. Table 7 represents the results for the effect of La(W) in 3 concentrations on late stages of HIV replication.

[2] = tested on: H9/HTLV III B cells chronically producing HIV-1LAI; test: Chronic infection: microtiter infection assay on MT-2 cells with supernatants of treated H9/HTLV III B cells; format: cell-based; details: undiluted supernatant on MT-2 cells
Experimental: as §5, §6

| Structure (SMILES) | CC50 at 72 h (in vitro) [µM] | MNC (maximal nontoxic concentration) (MT-2 cells) | CC50 (MT-2 cells) [µM] | MNC higher compared to La(1) and the ligand (1) (MT-2 cells) | Inhibition (%) (HIV-1LAI; 72 h incubation) | anti-HIV potency (in words) (HIV-1LAI) | HIV inhibition (%) Endogenous RT activity (HIV-1) | other results |
| --- | --- | --- | --- | --- | --- | --- | --- | --- |
| O=c1oc2ccccc2c(O)c1C(c1ccccc1)c1c(O)c2ccccc2oc1=O [(1), 3,3′-benzylidenebis[4-hydroxycoumarin]] | 25 | 0,25 μM |  |  |  |  |  |  |
| O.O.O=c1oc2ccccc2c([O-])c1C(c1ccccc1)c1c([O-])c2ccccc2oc1=O.[Ce+3].[OH-] [Ce(1)] |  | 12,5 μM | 25 | 10–50 times | 8,7% | limited anti-HIV potency | ∼ 1% |  |
| CC(=O)CC(c1ccccc1)c1c(O)c2ccccc2oc1=O (centres unmarked) [(W), 4-hydroxy-3-(3-oxo-1-phenylbutyl)-2H-1-benzopyran-2-one, reference compound] | 250 | 25 µM |  |  |  |  | ∼ 1% |  |
| CC(C)(C)NC(=O)[C@@H]1CN(Cc2cccnc2)CCN1C[C@@H](O)C[C@@H](Cc1ccccc1)C(=O)N[C@H]1c2ccccc2C[C@H]1O [Indinavir] |  |  |  |  |  |  |  | RT activity of SNs OD405 ([1]; 0.05 μM): 1.454 OD405; RT activity of SNs OD405 ([1]; 0.5 μM): 1.400 OD405; RT activity of SNs OD405 ([1]; 5 μM): 1.154 OD405; RT activity of SNs OD405 ([1]; 50 μM): 0.903 OD405; Microtiter infection assay OD540 ([2]; 0.05 μM): 0.739 OD540; Microtiter infection assay OD540 ([2]; 0.5 μM): 0.633 OD540; Microtiter infection assay OD540 ([2]; 5 μM): 0.520 OD540; Microtiter infection assay OD540 ([2]; 50 μM): 0.375 OD540 |
| O.O=c1oc2ccccc2c([O-])c1C(c1ccccc1)c1c([O-])c2ccccc2oc1=O.[La+3].[OH-] [La(1)] |  | 0,25 μM | 25 |  |  |  |  |  |
| O.O=c1oc2ccccc2c([O-])c1C(c1ccccc1)c1c([O-])c2ccccc2oc1=O.[Nd+3].[OH-] [Nd(1)] |  | 2.5 µM | 125 | 10–50 times | 10,4% | limited anti-HIV potency | ∼ 1% | lower cytotoxicity compared to the other lanthanides and the ligand (1) (MT-2 cells; ratio of CC50, MT-2 cells): at least 5 times; HIV inhibition (%) Microtiter infection assay (HIV-1LAI; at MNC, 72 h incubation, MT-2 cells, averaged after at least 3 experiments): 10.4% |
